From paper PMC10278073, “How Is Substrate Halogenation Triggered by the Vanadium Haloperoxidase from Curvularia inaequalis?” (ACS Catalysis, 2023)

T1: vanadium chloroperoxidase (CiVCPO) (Curvularia inaequalis, UniProt P49053)
T1 construct: gene CPO; His-trap purified CiVCPO expressed in E. coli BL21 DE3 (67 kDa)
T1 sequence (P49053 1-609): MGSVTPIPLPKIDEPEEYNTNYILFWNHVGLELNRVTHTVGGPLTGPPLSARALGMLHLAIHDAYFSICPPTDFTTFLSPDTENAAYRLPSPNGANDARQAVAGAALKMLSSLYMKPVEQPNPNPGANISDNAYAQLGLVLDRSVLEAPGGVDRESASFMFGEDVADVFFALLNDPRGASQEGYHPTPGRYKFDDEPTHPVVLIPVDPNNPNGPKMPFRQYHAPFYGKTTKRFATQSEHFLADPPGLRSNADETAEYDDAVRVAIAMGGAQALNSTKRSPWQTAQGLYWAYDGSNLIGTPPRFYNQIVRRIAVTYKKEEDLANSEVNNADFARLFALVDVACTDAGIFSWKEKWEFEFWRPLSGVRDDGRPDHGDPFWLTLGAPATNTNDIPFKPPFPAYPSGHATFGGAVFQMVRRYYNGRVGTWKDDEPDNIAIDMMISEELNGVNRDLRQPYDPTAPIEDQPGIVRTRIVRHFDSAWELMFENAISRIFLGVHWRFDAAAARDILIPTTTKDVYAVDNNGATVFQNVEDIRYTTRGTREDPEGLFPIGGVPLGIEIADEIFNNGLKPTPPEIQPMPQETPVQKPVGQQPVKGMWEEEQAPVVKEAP


Assays:
[1] = biological target: T1, vanadium chloroperoxidase (CiVCPO); experiment: fluorescence binding titration (quenching), tight-binding fit, pH […]
purified protein = substrate: c1ccc(-c2cc3ccccc3[nH]2)cc1; experiment: purified protein; conditions: vanadate pocket near the protein surface: Pro47, His222, Gln220, Asp292, Gly293, Asp390, Phe393, Pro396, Phe397 (docking/MD only)

| Kd [1] [nM] | Molecule | Km (purified protein) [µM] |
| --- | --- | --- |
| 660 ± 50 | Cn1c(-c2ccccc2)cc2ccccc21 [methylphenylindole] |  |
|  | vanadium chloroperoxidase (CiVCPO) (Curvularia inaequalis) (protein) MGSVTPIPLPKIDEPEEYNTNYILFWNHVGLELNRVTHTVGGPLTGPPLSARALGMLHLAIHDAYFSICPPTDFTTFLSPDTENAAYRLPSPNGANDARQAVAGAALKMLSSLYMKPVEQPNPNPGANISDNAYAQLGLVLDRSVLEAPGGVDRESASFMFGEDVADVFFALLNDPRGASQEGYHPTPGRYKFDDEPTHPVVLIPVDPNNPNGPKMPFRQYHAPFYGKTTKRFATQSEHFLADPPGLRSNADETAEYDDAVRVAIAMGGAQALNSTKRSPWQTAQGLYWAYDGSNLIGTPPRFYNQIVRRIAVTYKKEEDLANSEVNNADFARLFALVDVACTDAGIFSWKEKWEFEFWRPLSGVRDDGRPDHGDPFWLTLGAPATNTNDIPFKPPFPAYPSGHATFGGAVFQMVRRYYNGRVGTWKDDEPDNIAIDMMISEELNGVNRDLRQPYDPTAPIEDQPGIVRTRIVRHFDSAWELMFENAISRIFLGVHWRFDAAAARDILIPTTTKDVYAVDNNGATVFQNVEDIRYTTRGTREDPEGLFPIGGVPLGIEIADEIFNNGLKPTPPEIQPMPQETPVQKPVGQQPVKGMWEEEQAPVVKEAP | 1.52 |
